# Assay results published in patent US8795222B2, “Device and method for treatment of surface infections with nitric oxide” (Pulmonox Technologies Corp., priority 2000, dated 2014).
# Columns and labels:
# collagen mRNA = assay: mRNA expression after gNO exposure; type: cell-based
# From the text: Rather than applying exogenous collagenase for enzymatic debridement of necrotic tissue, exposing a wound with necrotic tissue to exogenous NO gas to upregulate endogenous collagenase may be more beneficial. When endogenous collagenase is released by the cell, it automatically releases TIMP's (tissue inhibitor of metalloproteinase). This ensures that the matrix degradation is coordinated and allows the establishment of sharp geographical boundaries of collagenolytic activity and the protection of areas of connective tissue from the activity of the enzyme. In contrast, use of exogenous collagenase material to debride a wound confers no protection to specific areas of the wound as it is active on every cell that comes in contact with it whether or not the effect is desired.
# Preferably, after the exposure of the wound to high concentration of nitric oxide gas for a first treatment period (e.g., 5-8 hours per day), the necrotic tissue may be mechanically removed easily and the concentration of nitric oxide gas can be decreased for a second treatment period. The low concentration of nitric oxide gas (e.g., at 5-20 ppm) delivered for the second treatment period may upregulate the expression of collagen mRNA leading to synthesis of new collagen to aid in the closure of the wound. […] The second treatment period may be for a period 7-16 hours per day. […]
# Group B Streptococci = assay: Bacteriocidal time study, 200 ppm gNO, saline suspension; type: cell-based, Group B Streptococcus
# Description: Following the dose and time ranging studies, a series of experiments were performed to determine the time required to effectively induce a bacteriocidal effect with 200 parts per million of gNO, a concentration just above the dose used in the dose-ranging study, on a representative collection of drug resistant gram-positive and gram-negative strains of bacteria associated with clinical infection. A successful bacteriocidal effect was defined as a decrease in bacteria greater than 3 log10 cfu/ml. Further, C. albicans, Methicillin Resistant S. aureus (MRSA), a particularly resistant strain of P. aeruginosa from a cystic fibrosis patient, Group B Streptococcus, and M. smegmatis were also included to see if yeast, multi-drug resistant strains of bacteria, and actinomycetes have a similar response. The drug-resistant bacteria represent a variety of pathogens that contribute to both respiratory and wound infections.
# For these experiments, saline was selected as a suspension media because it would not mask the direct effect of gNO as a bacteriocidal, whereas fully supplemented growth medium might introduce external variables (e.g., buffer or react with gNO). Other media might also provide metabolites and replenish nutrients that produce enzymes that protect bacteria from oxidative and nitrosative damage, thereby masking the effect of gNO. […] In saline, the colonies were static but remained viable. This is similar to the approach of Webert and Jean's use of animal models. Webert K E, et al (2000), Effects of inhaled nitric oxide in a rat model of Pseudomonas aeruginosa pneumonia, Crit. Care Med, 28(7):2397-2405 and Jean D, et al., (2002) Beneficial effects of nitric oxide inhalation on pulmonary bacterial clearance, Critical Care Medicine. 30(2):442-7.
# The latent period was then followed by an abrupt death of all cells. Gram negative and gram positive bacteria, antibiotic resistant bacterial strains, yeast and mycobacteria were all susceptible to 200 ppm gNO. Of importance, is the observation that the two drug resistant bacteria strains were also susceptible.
# [1] = system: non-healing venous leg ulcer; assay: Human case study, non-healing venous leg ulcer, topical gNO; type: in vivo
# From the text: This case study involved a person with a 30 year history of severe venous disease, both deep and superficial, related to deep vein thrombophlebitis. Initially, while, the patient developed bilateral non-healing venous leg ulcers that were surgically treated. The surgical sites healed but the ulcers continued to recur. Initially, the patient presented with a small ulcer located just below the medial malleolus of the left ankle.
# Arrangements were made to meet at the patient's home the following day to set up the equipment and for them to have a repeat training on the use of the treatment system. Training included use of the system as well as safety information on using the gas equipment.
# Nitric oxide gas (ViaNOx-H, VIASYS Healthcare, Yorba Linda, Calif., USA) was applied to the lower extremity with use of a gas-diluting delivery system (CidaNOx Delivery System) designed specifically for the study (PulmoNOx Medical Inc., Edmonton, Alberta, Canada). This CidaNOx delivery system contains an internal air pump for dilution of the gNO and a flow control circuit to dilute the 800 parts per million (ppm) in the NO source cylinder down to the therapeutic level of 200 ppm. The total flow from the system was 1.0 L/min and included one-quarter of a liter per minute (250 ml/min) flow of gNO. Several internal pressure sensors assure the dilution flow is operational and monitor the system. The flow of nitric oxide was limited to 250 ml/min by a mechanically set pressure regulator and a mechanical flowmeter that have no external controls that could be changed by the patient. The concentration of nitric oxide delivered was assured by measurement of the CidaNOx output with a calibrated nitric oxide analyzer (AeroNOx, Pulmonox Medical Inc.) that is approved for monitoring inhaled NO in human patients.
# The 200 ppm gNO from the CidaNOx Delivery System flowed out to a single patient use plastic boot that covered the patient's lower extremity. […] A secondary air outlet from the CidaNOx unit managed the inflation of the cuff. The patient connected the pump outlet to the cuff connector until it was inflated and then the connector was sealed closed with the provided clamp. […]
# To explore the potential for wound bed preparation and accelerated wound healing from prolonged use, treatment regimen beyond three days was chosen and which was stopped at 14 days to evaluate the short-term effects and explore the possibility that the short-term effects would improve the longer-term outcome. […] The patient recorded the date, time, and duration of each treatment period on a data sheet, and any significant observations related to the wound, treatment, or equipment. The wound size (cm^2) was measured using digital photography and densitometry technique (Scion Image −4.02, Scion Corp., Frederick Md., USA). […]
smiles,measurement,setting,value
"[N]=O [gNO, nitric oxide]",collagen mRNA expression,collagen mRNA; fibroblast exposed to 5 ppm of NO,increased collagen mRNA expression
same,collagen expression,"collagen mRNA; high concentration, 200 ppm gNO, 24 hours and 48 hours",possible inhibition of collagen expression
same,LD100,Group B Streptococci,2 h
same,Latent Period*,Group B Streptococci,1 h
same,−2.5 Log10,Group B Streptococci; time to −2.5 log10 cfu/ml,1.5 hrs
same,ulcer status,[1]; 26 weeks post NO discontinuation,completely healed and reepithelialized
same,"wound size, day 3","[1]; 200 ppm gNO nightly, day 3, 24 hours cumulative exposure, p=0.014",Significant wound size reduction
same,reduction in wound area,"[1]; 200 ppm gNO nightly, end of therapy at day 14",approximately 75%
same,wound healed,[1]; six weeks after the end of 14-day 200 ppm gNO treatment,about 90%
